Data taken from patent US9133204B2, “5-membered heterocyclic amides and related compounds” (H. Lundbeck A/S, priority 2007, dated 2015).

Molecular target: T1, P2X7 receptor (Homo sapiens, UniProt Q99572)
T1 construct: host or cells: SH-SY5Y
T1 sequence (Q99572 1-595): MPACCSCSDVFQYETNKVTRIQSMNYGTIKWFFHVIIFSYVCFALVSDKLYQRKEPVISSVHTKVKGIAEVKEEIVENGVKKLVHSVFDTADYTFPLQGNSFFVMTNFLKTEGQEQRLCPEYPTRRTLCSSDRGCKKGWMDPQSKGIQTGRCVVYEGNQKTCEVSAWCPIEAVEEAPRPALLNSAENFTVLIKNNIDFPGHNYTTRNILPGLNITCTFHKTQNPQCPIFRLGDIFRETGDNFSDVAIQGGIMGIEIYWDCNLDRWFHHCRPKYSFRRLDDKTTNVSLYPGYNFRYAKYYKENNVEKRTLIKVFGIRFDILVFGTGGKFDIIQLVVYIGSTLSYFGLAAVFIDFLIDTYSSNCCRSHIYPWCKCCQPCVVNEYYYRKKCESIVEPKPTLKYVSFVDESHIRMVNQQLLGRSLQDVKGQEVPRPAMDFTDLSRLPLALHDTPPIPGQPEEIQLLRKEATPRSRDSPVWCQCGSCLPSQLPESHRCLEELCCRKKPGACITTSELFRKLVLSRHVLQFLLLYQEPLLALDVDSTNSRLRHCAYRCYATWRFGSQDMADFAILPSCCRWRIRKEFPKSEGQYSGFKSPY
Test: High throughput P2X7 calcium mobilization assay (Example 4A)
Type: cell-based
Conditions: SH-SY5Y cells, 50% decrease in fluorescence response of cells exposed to 80 μM BzATP
How it was run: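 Calcium mobilization read by FLIPR as peak fluorescence over 2 min after adding BzATP to a final 80 μM (about EC50). Beforehand, Fluo-4 AM-loaded SH-SY5Y cells sat 1 h at room temperature with compound at 1–2500 nM in pH 7.4 sucrose/HEPES buffer; signal minus no-agonist wells.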

[1] = flag after the MS data in Examples 1-2

IC50 (Table I) [nM] | IC50 [1] [nM] | Compound
≤ 2000 | – | O=C(NCC1(c2ccc(Cl)cc2)CCCCC1)c1cn(-c2ncccn2)nc1C(F)(F)F [Compound 195, N-{[1-(4-chlorophenyl)cyclohexyl]methyl}-1-pyrimidin-2-yl-3-(trifluoromethyl)-1H-pyrazole-4-carboxamide]
≤ 2000 | – | Cc1nn(-c2nccnc2N)cc1C(=O)NCC(CC(C)C)c1ccc(C(F)(F)F)cc1 (centres unmarked) [Compound 179, 1-(3-aminopyrazin-2-yl)-3-methyl-N-{4-methyl-2-[4-(trifluoromethyl)phenyl]pentyl}-1H-pyrazole-4-carboxamide]
– | ≤ 2000 | O=C(NCC12CC3CC(CC(C3)C1)C2)c1cn(-c2ncc(F)cn2)nc1C(F)F [Compound 3, 3-(Difluoromethyl)-1-(5-fluoro-pyrimidin-2-yl)-1H-pyrazole-4-carboxylic acid (adamantan-1-ylmethyl)-amide]
– | ≤ 2000 | COc1ccc(C2(CNC(=O)c3sc(-c4cccnc4)nc3C)CCCCC2)cc1 [Compound 36, N-{[1-(4-methoxyphenyl)cyclohexyl]methyl}-4-methyl-2-pyridin-3-yl-1,3-thiazole-5-carboxamide]
≤ 2000 | – | Cc1nccnc1-n1cc(C(=O)NCC2(c3cccnc3)CCCCC2)c(C(F)(F)F)n1 [Compound 186, 1-(3-methylpyrazin-2-yl)-N-[(1-pyridin-3-ylcyclohexyl)methyl]-3-(trifluoromethyl)-1H-pyrazole-4-carboxamide]
≤ 2000 | – | O=C(NCC(O)C12CC3CC(CC(C3)C1)C2)c1cn(-c2ncccn2)nc1C(F)(F)F (centres unmarked) [Compound 205, N-(2-adamantan-1-yl-2-hydroxyethyl)-1-pyrimidin-2-yl-3-(trifluoromethyl)-1H-pyrazole-4-carboxamide]
≤ 2000 | – | O=C(NCC12CC3CC(CC(C3)C1)C2)c1c[nH]nc1C(F)(F)F [Compound 134, N-(adamantan-1-ylmethyl)-3-(trifluoromethyl)-1H-pyrazole-4-carboxamide]
– | ≤ 2000 | O=C(CC12CC3CC(CC(C3)C1)C2)Nc1cn(-c2ncccn2)nc1C(F)(F)F [Compound 15, 2-Adamantan-1-yl-N-(1-pyrimidin-2-yl-3-trifluoromethyl-1H-pyrazol-4-yl)-acetamide]
≤ 2000 | – | Cc1nc(-c2ncccn2)sc1C(=O)NCC1(c2cccnc2)CCCCC1 [Compound 289, 4-methyl-N-[(1-pyridin-3-ylcyclohexyl)methyl]-2-pyrimidin-2-yl-1,3-thiazole-5-carboxamide]
≤ 2000 | – | COc1ccc(C2(CNC(=O)c3cn(-c4ncccn4)nc3C(F)(F)F)CCCCC2)cc1 [Compound 199, N-{[1-(4-methoxyphenyl)cyclohexyl]methyl}-1-pyrimidin-2-yl-3-(trifluoromethyl)-1H-pyrazole-4-carboxamide]
– | ≤ 2000 | O=C(NCC12CC3CC(CC(C3)C1)C2)c1cnn(-c2ncccn2)c1Cl [Compound 8, N-(Adamantan-1-ylmethyl)-5-chloro-1-pyridimin-2-yl-1H-pyrazole-4-carboxamide]
≤ 2000 | – | Nc1nc(-n2cc(C(=O)NCC3(c4ccc(Cl)cc4)CCC3)c(C(F)(F)F)n2)ncc1F [Compound 167, 1-(4-amino-5-fluoropyrimidin-2-yl)-N-{[1-(4-chlorophenyl)cyclobutyl]methyl}-3-(trifluoromethyl)-1H-pyrazole-4-carboxamide]
≤ 2000 | – | O=C(NCC1(c2cccnc2)CCCCC1)c1sc(N2CCC(N3CCCC3)CC2)nc1C(F)(F)F [Compound 302, N-[(1-pyridin-3-ylcyclohexyl)methyl]-2-(4-pyrrolidin-1-ylpiperidin-1-yl)-4-(trifluoromethyl)-1,3-thiazole-5-carboxamide]
≤ 2000 | – | CCCC(CNC(=O)c1cn(-c2ncccn2)nc1C(F)(F)F)c1ccc(Cl)cc1 (centres unmarked) [Compound 201, N-[2-(4-chlorophenyl)pentyl]-1-pyrimidin-2-yl-3-(trifluoromethyl)-1H-pyrazole-4-carboxamide]
≤ 2000 | – | O=C(NCC(CCC1CCCCC1)c1ccccc1)c1cn(-c2ncccn2)nc1C(F)(F)F (centres unmarked) [Compound 214, N-(4-cyclohexyl-2-phenylbutyl)-1-pyrimidin-2-yl-3-(trifluoromethyl)-1H-pyrazole-4-carboxamide]
≤ 2000 | – | Cc1nn(-c2cncc(N)n2)cc1C(=O)NCC(CC(C)C)c1ccc(C(F)(F)F)cc1 (centres unmarked) [Compound 180, 1-(6-aminopyrazin-2-yl)-3-methyl-N-{4-methyl-2-[4-(trifluoromethyl)phenyl]pentyl}-1H-pyrazole-4-carboxamide]

IC50 (Table I) [nM] | IC50 [1] [nM] | Compound
≤ 2000 | – | Cc1cnc(-n2cc(C(=O)NCC34CC5CC(CC(C5)C3)C4)c(C(F)(F)F)n2)nc1N [Compound 123, N-(adamantan-1-ylmethyl)-1-(4-amino-5-methylpyrimidin-2-yl)-3-(trifluoromethyl)-1H-pyrazole-4-carboxamide]
≤ 2000 | – | Cc1nn(-c2ncccn2)cc1C(=O)NCC(CC(C)C)c1ccc(C(F)(F)F)cc1 (centres unmarked) [Compound 178, 3-methyl-N-{4-methyl-2-[4-(trifluoromethyl)phenyl]pentyl}-1-pyrimidin-2-yl-1H-pyrazole-4-carboxamide]
≤ 2000 | – | Cc1nn(C)c(C(=O)NCC23CC4CC(CC(C4)C2)C3)c1Br [Compound 62, N-(adamantan-1-ylmethyl)-4-bromo-1,3-dimethyl-1H-pyrazole-5-carboxamide]
≤ 2000 | – | Cc1nn(-c2nccc(N)n2)cc1C(=O)NCC1(c2ccc(C(F)(F)F)cc2)CCCCC1 [Compound 175, 1-(4-aminopyrimidin-2-yl)-3-methyl-N-({1-[4-(trifluoromethyl)phenyl]cyclohexyl]methyl)-1H-pyrazole-4-carboxamide]
≤ 2000 | – | O=C(NCC1(c2cccnc2)CCCCC1)c1cn(-c2ncccn2)nc1C(F)(F)F [Compound 151, N-[(1-pyridin-3-ylcyclohexyl)methyl]-1-pyrimidin-2-yl-3-(trifluoromethyl)-1H-pyrazole-4-carboxamide]
≤ 2000 | – | CCc1nc(-c2ncccn2)sc1C(=O)NCC1(c2ccc(OC)cc2)CCCC1 [Compound 269, 4-ethyl-N-{[1-(4-methoxyphenyl)cyclopentyl]methyl}-2-pyrimidin-2-yl-1,3-thiazole-5-carboxamide]
≤ 2000 | – | CC1(C)C2CC[C@@H](CNC(=O)c3cn(-c4ncccn4)nc3C(F)(F)F)C1C2 (stereo partly drawn) [Compound 194, N-{[(2R)-6,6-dimethylbicyclo[3.1.1]hept-2-yl]methyl}-1-pyrimidin-2-yl-3-(trifluoromethyl)-1H-pyrazole-4-carboxamide]
≤ 2000 | – | O=C(NCC1(N2CCNCC2)CCCCC1)c1sc(-c2ncccn2)nc1C(F)(F)F [Compound 313, N-[(1-piperazin-1-ylcyclohexyl)methyl]-2-pyrimidin-2-yl-4-(trifluoromethyl)-1,3-thiazole-5-carboxamide]
≤ 2000 | – | Cc1nn(-c2ncc(F)cn2)cc1C(=O)NCC(CC(C)C)c1ccc(C(F)(F)F)cc1 (centres unmarked) [Compound 117, 1-(5-fluoropyrimidin-2-yl)-3-methyl-N-{4-methyl-2-[4-(trifluoromethyl)phenyl]pentyl}-1H-pyrazole-4-carboxamide]
≤ 2000 | – | Cc1cnc(-n2cc(C(=O)NCC34CC5CC(CC(C5)C3)C4)c(C)n2)nc1C(=O)N1CCCC1 [Compound 104, N-(adamantan-1 ylmethyl)-3-methyl-1-[5-methyl-4-(pyrrolidin-1-ylcarbonyl)pyrimidin-2-yl]-1H-pyrazole-4-carboxamide]
≤ 2000 | – | O=C(NCC1(c2ccc(Cl)cc2)CCC1)c1cn(-c2ncccn2)nc1C(F)(F)F [Compound 204, N-{[1-(4-chlorophenyl)cyclobutyl]methyl}-1-pyrimidin-2-yl-3-(trifluoromethyl)-1H-pyrazole-4-carboxamide]
≤ 2000 | – | Cc1ccsc1C(=O)NCC12CC3CC(CC(C3)C1)C2 [Compound 73, N-(1-adamantylmethyl)-3-methylthiophene-2-carboxamide]
≤ 2000 | – | CCc1nc(-c2ncccn2)sc1C(=O)NCC(CC(C)C)c1ccc(C(F)(F)F)cc1 (centres unmarked) [Compound 220, 4-ethyl-N-{4-methyl-2-[4-(trifluoromethyl)phenyl]pentyl}-2-pyrimidin-2-yl-1,3-thiazole-5-carboxamide]
≤ 2000 | – | Cc1cncc(-n2cc(C(=O)NCC3(c4cccnc4)CCCCC3)c(C(F)(F)F)n2)n1 [Compound 187, 1-(6-methylpyrazin-2-yl)-N-[(1-pyridin-3-ylcyclohexyl)methyl]-3-(trifluoromethyl)-1H-pyrazole-4-carboxamide]
≤ 2000 | – | CCNC(=O)c1nc(-n2cc(C(=O)NCC34CC5CC(CC(C5)C3)C4)c(C)n2)ncc1C [Compound 107, 2-{4-[(adamantan-1-ylmethyl)carbamoyl]-3-methyl-1H-pyrazol-1-yl]-N-ethyl-5-methylpyrimidine-4-carboxamide]

Compound | IC50 (Table I) [nM] | IC50 [1] [nM]
COC(=O)c1cc(C(=O)NCC23CC4CC(CC(C4)C2)C3)n(C(C)C)n1 [Compound 47, methyl 5-[(adamantan-1-ylmethyl)carbamoyl]-1-isopropyl-1H-pyrazole-3-carboxylate] | ≤ 2000 | –
